We go through 40 compounds from US20110184188A1, “Insecticidal Benzenedicarboxamide Derivative” (priority 2008, published 2011).

Molecules are shown by their SMILES.

One data set in a line: logP(acid) by reverse phase (C18) chromatography at pH 2.3. Format: physicochemical. Particulars: pH 2.3.
The compound `Cc1nc(Cn2nnc(C(F)(F)F)n2)ccc1[N+](=O)[O-]` [SYNTHESIS EXAMPLE 85-1] registered a chromatographic logP of 2.85.

Still in this data set, the particulars now being: reverse phase (C18) chromatography at pH 2.3.
As to `CSC[C@H](C)NC(=O)c1c(Cl)cccc1C(=O)Nc1ccc(Cn2nc(C(F)F)c(Cl)c2C(F)F)nc1C` [13-27], the “logP (acid)” value is on record as 3.21. The same measure, in the same setting: the result for `COc1ccc(Br)c(C(=O)Nc2ccc(Cn3nc(C(F)(F)F)cc3C(F)(F)F)nc2C)c1C(=O)N[C@@H](C)CSC` [11-16] reads “logP (acid) 3.63”; that for `Cc1nc(Cn2nc(C(F)F)c(Cl)c2C(F)F)ccc1NC(=O)c1cccc(Cl)c1C(=O)N[C@@H](C)CS(C)(=O)=O` [13-76], 2.48; that for `COc1ccc(Br)c(C(=O)Nc2ccc(Cn3nc(C(F)(F)C(F)(F)F)cc3C(F)(F)F)nc2C)c1C(=O)N[C@@H](C)CSC` [11-19], “logP (acid) 4.02”. Still for that read-out and setting: as for `CSC[C@H](C)NC(=O)c1c(Cl)ccc(Cl)c1C(=O)Nc1ccc(Cn2nc(C(F)(F)C(F)(F)F)nc2C(F)(F)F)cc1C` [11-27], the entry is “logP (acid) 4.51”. As to `CCSc1nc(C(F)(F)F)nn1Cc1ccc(NC(=O)c2cccc(Cl)c2C(=O)NC(C)CSC)c(C)c1` (stereo not shown) [14-38], the “Physical property logP (acid)” value is given as “logP (acid) 4.13”. Take `Cc1nc(Cn2cc(C(F)(F)C(F)(F)F)c(C(F)(F)C(F)(F)F)n2)ccc1NC(=O)c1cccc(Cl)c1C(=O)N[C@@H](C)CS(C)(=O)=O` [13-110]: the “logP (acid)” value is reported as “logP (acid) 3.46”. Still for that read-out and setting: as for `Cc1nc(Cn2nc(C(F)(F)C(F)(F)C(F)(F)F)cc2C(F)(F)F)ccc1NC(=O)c1cccc(Br)c1C(=O)N[C@@H](C)C[S+](C)[O-]` (stereo partly shown) [13-136], the entry is “logP (acid) 3.08”. On the same count and under the same terms, the result for `Cc1nc(Cn2nc(C(F)(F)C(F)(F)F)cc2C(F)(F)F)ccc1NC(=O)c1cccc(I)c1C(=O)N[C@@H](C)CS(C)(=O)=O` [13-189] reads “logP (acid) 3.27”.

Staying with this data set, now noted: reverse phase (C18) chromatography at pH2.3, 0.1% phosphoric acid aqueous solution / acetonitrile, linear gradient 10-95%.
Regarding `CSC[C@H](C)NC(=O)c1c(Cl)cccc1C(=O)Nc1cccc(Cn2nc(C(F)(F)C(F)(F)F)nc2-c2ccc(Cl)nc2)c1C` [4-11], the “logP (acid)” value is given as “logP (acid) 3.8”.

On to `CSC[C@H](C)NC(=O)c1c(Cl)cccc1C(=O)Nc1cccc(Cn2nnc(-c3ccc(C(F)(F)F)cc3)n2)c1` [4-16], for which the “logP (acid)” value is reported as “logP (acid) 3.86”.

On to `CNC(=O)c1cc(Cl)cc(Cl)c1C(=O)Nc1cc(Cl)cc(Cn2nc(C(F)(F)F)nc2C(F)(F)F)c1` [4-1], for which the “logP (acid)” value was “logP (acid) 3.32”.

Staying with this data set, now noted: reverse phase (C18) chromatography at pH2.3, 0.1% phosphoric acid aqueous solution / acetonitrile, linear gradient 10-95% acetonitrile.
In the case of `Cc1cc(Cn2nc(C(F)(F)F)nc2C(F)(F)F)c(F)cc1NC(=O)c1cccc(Br)c1C(=O)N[C@@H](C)C[S+](C)[O-]` (stereo partly shown) [7-14], the “logP (acid)” value is reported as “logP (acid) 2.68”.

Still in this data set, the particulars now being: reverse phase (C18) chromatography column, pH 2.3; reverse phase (C18) chromatography, pH2.3, 0.1% phosphoric acid / acetonitrile gradient 10-95%; read-out: logP (acid).
For the compound `Cc1nc(Cn2cc(C(F)(F)C(F)(F)F)c(C(F)(F)C(F)(F)F)n2)ccc1[N+](=O)[O-]` [SYNTHESIS EXAMPLE 82-1], the chromatographic logP was 4.5. Take `Cc1nc(Cn2cnc(C(F)(F)C(F)F)n2)ccc1N` [SYNTHESIS EXAMPLE 83-2]: the chromatographic logP was 0.55.

The data set is the same for the next values; noted with them: reverse phase (C18) chromatography, pH 2.3.
Turning to `CC(=O)CC(C)NC(=O)c1c(I)cccc1C(=O)Nc1ccc(Cn2nc(C(F)(F)C(F)(F)F)nc2C(F)(F)F)cc1C` (stereo not shown) [14-297], the “logP (acid)” value is “logP (acid) 3.70”.

Turning to `CSC[C@H](C)NC(=O)c1c(Cl)cccc1C(=O)Nc1ccc(Cn2nc(C(F)(F)C(F)F)nc2C(F)(F)F)nc1C` [14-311], the “logP (acid)” value was “logP (acid) 3.45”. Same read-out and setting: the result for `Cc1cc(Cn2nc(C(F)(F)C(F)(F)F)nc2C(F)(F)F)ccc1NC(=O)c1cccc(Br)c1C(=O)NC(C)CC1(C)OCCCO1` (stereo not shown) [14-359] reads “logP (acid) 4.06”; that for `Cc1cc(Cn2nc(C(F)(F)C(F)(F)F)nc2C(F)(F)F)ccc1NC(=O)c1cccc(Cl)c1C(=O)NC(C)CC1(C)OCCCO1` (stereo not shown) [14-357], “logP (acid) 3.79”.

As for `Cc1nc(Cn2nc(C(F)(F)F)cc2C(F)(F)F)ccc1NC(=O)c1c(Cl)cccc1C(=O)NC(C)CN(C)C` (stereo not shown) [13-283], the “logP (acid)” value was “logP (acid) 2.4”.

As to `Cc1nc(Cn2nc(C(F)(F)F)nc2C(F)(F)F)ccc1NC(=O)c1cccc(S(=O)(=O)N(C)C)c1C(=O)N[C@@H](C)CS(C)(=O)=O` [14-369], the “logP (acid)” value is recorded as “logP (acid) 2.72”. Same read-out and setting: as for `Cc1nc(Cn2nc(C(F)(F)F)n(C)c2=O)ccc1NC(=O)c1cccc(Cl)c1C(=O)N[C@@H](C)CS(C)(=O)=O` [14-322], the entry is “logP (acid) 1.60”; as for `CSC[C@H](C)NC(=O)c1c(Br)cncc1C(=O)Nc1ccc(Cn2nc(C(F)(F)C(F)(F)F)nc2C(F)(F)F)cc1C` [14-300], “logP (acid) 3.84”.

Consider `CSCC(C)NC(=O)c1c(Cl)cccc1C(=O)Nc1ccc(C(O)c2cc(C(F)(F)C(F)(F)F)n[nH]2)cc1C` (mixture of isomers) [13-231], for which the “logP (acid)” value is listed as “logP (acid) 2.76”. The same measure, in the same setting: as for `CSC[C@H](C)NC(=O)c1c(Cl)cccc1C(=O)Nc1ccc(Oc2cc(C(F)(F)F)n(C)n2)nc1C` [13-228], the entry is “logP (acid) 2.98”; as for `CSC[C@H](C)NC(=O)c1c(Cl)cccc1C(=O)Nc1ccc(Cn2cc(C(=O)NC(C)C)c(C(F)(F)F)n2)cc1C` [13-209], “logP (acid) 2.87”; as for `CC(=O)CC(C)NC(=O)c1c(Br)cccc1C(=O)Nc1ccc(Cn2nc(C(F)(F)C(F)(F)F)nc2C(F)(F)F)cc1C` (stereo not shown) [14-296], “logP (acid) 3.46”. On to `CSC[C@H](C)NC(=O)c1c(Cl)cccc1C(=O)Nc1ccc(Cn2nc(C(F)(F)F)n(C3CC3)c2=O)nc1C` [14-323], for which the “logP (acid)” value is reported as “logP (acid) 2.57”. In the case of `CC(=O)OC[C@H](C)NC(=O)c1c(Cl)cccc1C(=O)Nc1ccc(Cn2nc(C(F)(F)F)nc2C(F)(F)F)cc1C` [14-298], the “logP (acid)” value was “logP (acid) 3.08”. Same read-out and setting: the result for `CSC[C@H](C)NC(=O)c1c(Cl)cccc1C(=O)Nc1ccc(Cn2nc(C(F)(F)C(F)(F)F)n(C(F)F)c2=O)cc1C` [14-328] reads “logP (acid) 3.68”; that for `CCN(CC)CC(C)NC(=O)c1cccc(Cl)c1C(=O)Nc1ccc(Cn2nc(C(F)(F)F)cc2C(F)(F)F)nc1C` (stereo not shown) [13-285], “logP (acid) 2.53”.

The same data set, now with this note: reverse phase (C18) chromatography, pH2.3, 0.1% phosphoric acid / acetonitrile gradient 10-95%.
For the compound `CNC(=O)c1cc(Cl)cc(Cl)c1C(=O)Nc1cc(Cl)ccc1Cn1nc(C(F)(F)F)nc1C(F)(F)F` [3-2], the “logP (acid)” value was “logP (acid) 3.84”.

For `CSC[C@H](C)NC(=O)c1c(Cl)cccc1C(=O)Nc1cc(F)c(C)nc1Cn1nc(C(F)(F)F)cc1C(F)(F)F` [3-7], the “logP (acid)” value is “logP (acid) 4.28”.

The data set is the same for the next values; noted with them: reverse phase (C18) chromatography, pH2.3, 0.1% phosphoric acid aqueous solution / acetonitrile, linear gradient 10-95% acetonitrile.
Turning to `Cc1nc(Cn2nc(C(F)(F)F)cc2C(F)(F)F)ccc1NC(=O)c1ccc(F)c(Br)c1C(=O)N[C@@H](C)C[S+](C)[O-]` (stereo partly shown) [9-11], the “logP (acid)” value is listed as “logP (acid) 2.51”. Same read-out and setting: the result for `Cc1nc(Cn2nc(C(F)(F)F)cc2C(F)(F)F)ccc1NC(=O)c1ccc(F)c(Br)c1C(=O)N[C@@H](C)CS(C)(=O)=O` [9-21] reads “logP (acid) 3.27”; that for `Cc1cc(Cn2nc(C(F)(F)C(F)(F)F)nc2C(F)(F)F)ccc1NC(=O)c1ccc(F)c(Br)c1C(=O)N[C@@H](C)CS(C)(=O)=O` [9-22], “logP (acid) 3.36”; that for `Cc1cc(Cn2nc(C(F)(F)F)cc2C(F)(F)F)ccc1NC(=O)c1ccc(C(F)(F)F)c(Cl)c1C(=O)N[C@@H](C)CS(C)(=O)=O` [9-17], “logP (acid) 3.22”. As to `Cc1cc(Cn2nc(C(F)(F)C(F)(F)F)nc2C(F)(F)F)ccc1NC(=O)c1ccc(C(F)(F)F)c(Cl)c1C(=O)N[C@@H](C)CS(C)(=O)=O` [9-25], the “logP (acid)” value is reported as “logP (acid) 3.70”. The same measure, in the same setting: as for `CSC[C@H](C)NC(=O)c1c(C(=O)Nc2ccc(Cn3nc(C(F)(F)C(F)(F)F)nc3C(F)(F)F)cc2C)ccc([N+](=O)[O-])c1Cl` [9-15], the entry is “logP (acid) 4.27”.
